This is an account of results in patent US8664186B2, “Stambomycin and derivatives, their production and their uses as drugs” (Universite de Lorraine, priority 2009, dated 2014).

For test [1], the system named is HT29 cells. Description: anti-proliferative activity using HT29 cells. It counts as cell-based, human. As for the experimental part:
(§1) Cytotoxicity was tested using CHO-K1 cells and anti-proliferative activity was examined using HT29 cells.
(§2) The effects were compared with Doxorubicin and Sodium butyrate.

For test [2], the system named is CHO-K1 cells. Nature of the test: cytotoxicity using CHO-K1 cells. It counts as cell-based, Chinese hamster. The note with it: Cricetulus griseus, CHO-K1 ovary sane cell line. The procedure:
as §1, §2

Where two headings read alike, the source gives them in different places.

Turning to `CCCC(=O)[O-].[Na+]` [Sodium butyrate], the IC50 in test [1] (Homo sapiens, HT-29, read-out: IC50 (μM) for HT29) was 4890 µM.
Take `COc1cccc2c1C(=O)c1c(O)c3c(c(O)c1C2=O)C[C@@](O)(C(=O)CO)C[C@@H]3O[C@H]1C[C@H](N)[C@H](O)[C@H](C)O1` [Doxorubicin]: the IC50 was found to be 1.99 µM in test [2] and 1.32 µM in test [1] (HT-29, HT29 human colon adenocarcinoma, read-out: IC50 (μM) for HT29).

For orientation: IC50 means the concentration needed to halve the response being measured.
